Source: the supplement of paper PMC9512659

Experiments:
[1] = tested on: Mycobacterium tuberculosis Erdman (pMV306hsp+LuxG13); assay: AUC25, normalised area under the dose-response curve up to IC25 (normalised AUC (unitless)); higher = more potent
Description: (§1)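 DiaMOND pairwise dose responses of an equipotent two-drug mixture (1.5-fold, 10-dose series) against autoluminescent M. tuberculosis Erdman in 384-well plates. Growth inhibition was read by OD600 (luminescence for dormancy) in seven media at a constant and a terminal time point; metrics are means of at least biological duplicates. Einf and AUC25 higher = more potent; GRinf lower = more potent; log2FIC negative = synergy.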

[2] = tested on: Mycobacterium tuberculosis Erdman (pMV306hsp+LuxG13); assay: log2 fractional inhibitory concentration at 50% inhibition (log2 FIC); higher = more antagonistic
Description: as §1

[3] = tested on: Mycobacterium tuberculosis Erdman (pMV306hsp+LuxG13); assay: log2 fractional inhibitory concentration at 90% inhibition (log2 FIC); higher = more antagonistic
Description: as §1

[4] = tested on: Mycobacterium tuberculosis Erdman (pMV306hsp+LuxG13); assay: GRinf, normalised growth-rate inhibition at infinite dose (GR value (unitless, negative = killing)); higher = less potent
Description: as §1

[5] = tested on: Mycobacterium tuberculosis Erdman (pMV306hsp+LuxG13); assay: Einf, effect of the drug pair at infinite dose (maximum growth inhibition) (fraction inhibition (0-1)); higher = more potent; extreme values may be limits of the assay
Description: as §1

CO[C@H]1/C=C/O[C@@]2(C)Oc3c(C)c(O)c4c(O)c(c(/C=N/N5CCN(C6CCCC6)CC5)c(O)c4c3C2=O)NC(=O)/C(C)=C\C=C\[C@H](C)[C@H](O)[C@@H](C)[C@@H](O)[C@@H](C)[C@H](OC(C)=O)[C@@H]1C [rifapentine] + CC(=O)NC[C@H]1CN(c2ccc(N3CCSCC3)c(F)c2)C(=O)O1 [sutezolid]
Conditions	AUC25, [1]	Einf, [5]	GRinf, [4]	log2 fractional inhibitory concentration, [2]	log2 fractional inhibitory concentration, [3]
growth medium: acidic pH 5.7, glycerol, time point: constant time point	0.0889	0.884	-0.224	-0.201	–
growth medium: acidic pH 5.7, glycerol, time point: terminal time point	0.0808	0.987	-0.263	0.0996	-0.527
growth medium: butyrate 5 mM, time point: constant time point	0.0809	0.896	0.0472	0.129	–
growth medium: butyrate 5 mM, time point: terminal time point	0.0542	0.942	0.0324	0.16	-0.276
growth medium: cholesterol 0.05 mM, time point: constant time point	0.0962	1	-1	-0.454	0.00059
growth medium: cholesterol 0.05 mM, time point: terminal time point	0.135	1	-1	-1.5	-0.142
growth medium: cholesterol 0.2 mM (cholesterol-high), time point: constant time point	0.0718	1	-1	-0.331	-0.285
growth medium: cholesterol 0.2 mM (cholesterol-high), time point: terminal time point	0.0787	1	-0.769	-0.38	-0.276
growth medium: standard 7H9 OADC glycerol, time point: constant = terminal time point (4.2 d)	0.0417	0.983	-0.0675	-0.00234	-0.509
growth medium: valerate 0.1%, time point: constant time point	0.107	0.877	-0.107	-0.128	–
growth medium: valerate 0.1%, time point: terminal time point	0.0657	0.976	-0.0835	0.176	0.234

growth medium: hypoxic dormancy (butyrate + nitrate), then recovery
Conditions	AUC25, [1]	Einf, [5]	GRinf, [4]	log2 fractional inhibitory concentration, [2]	log2 fractional inhibitory concentration, [3]
time point: constant time point	0.0482	0.974	0.21	-0.541	-0.514
time point: terminal time point	0.0473	0.963	0.209	0.397	0.244

CC[C@@H](CO)NCCN[C@@H](CC)CO [ethambutol] + CC(C)=CCC/C(C)=C/CNCCNC1C2CC3CC(C2)CC1C3 [SQ109]
Conditions	AUC25, [1]	Einf, [5]	GRinf, [4]	log2 fractional inhibitory concentration, [2]	log2 fractional inhibitory concentration, [3]
growth medium: butyrate 5 mM, time point: constant time point	0.0766	0.886	0.0457	0.614	–
growth medium: butyrate 5 mM, time point: terminal time point	0.0668	0.937	0.0593	0.497	0.586
growth medium: cholesterol 0.05 mM, time point: constant time point	0.0769	0.732	-0.435	0.488	–
growth medium: cholesterol 0.2 mM (cholesterol-high), time point: constant time point	0.0635	1	-0.949	0.679	0.489
growth medium: cholesterol 0.2 mM (cholesterol-high), time point: terminal time point	0.0641	1	-0.86	0.546	0.354
growth medium: standard 7H9 OADC glycerol, time point: constant = terminal time point (4.2 d)	0.0512	0.843	0.238	0.0946	–
growth medium: valerate 0.1%, time point: constant time point	0.0745	0.902	0.155	0.751	0.158
growth medium: valerate 0.1%, time point: terminal time point	0.0778	0.9	0.175	0.656	0.34

growth medium: hypoxic dormancy (butyrate + nitrate), then recovery
Conditions	AUC25, [1]	Einf, [5]	GRinf, [4]	log2 fractional inhibitory concentration, [2]	log2 fractional inhibitory concentration, [3]
time point: constant time point	0.0928	0.988	-0.333	-0.601	-0.745
time point: terminal time point	0.0578	0.96	0.144	0.71	–

COc1nc2ccc(Br)cc2cc1[C@@H](c1ccccc1)[C@@](O)(CCN(C)C)c1cccc2ccccc12 [bedaquiline] + CC(C)=CCC/C(C)=C/CNCCNC1C2CC3CC(C2)CC1C3 [SQ109]
Conditions	AUC25, [1]	Einf, [5]	GRinf, [4]	log2 fractional inhibitory concentration, [2]	log2 fractional inhibitory concentration, [3]
growth medium: butyrate 5 mM, time point: constant time point	0.0731	0.963	-0.11	0.85	0.414
growth medium: butyrate 5 mM, time point: terminal time point	0.0507	0.979	-0.0824	0.817	0.616
growth medium: cholesterol 0.05 mM, time point: constant time point	0.085	0.82	-0.737	0.241	–
growth medium: cholesterol 0.2 mM (cholesterol-high), time point: constant time point	0.0719	1	-0.847	0.546	0.667
growth medium: cholesterol 0.2 mM (cholesterol-high), time point: terminal time point	0.0884	1	-0.779	0.31	0.799
growth medium: standard 7H9 OADC glycerol, time point: constant = terminal time point (4.2 d)	0.0609	0.967	-0.158	0.0969	–
growth medium: valerate 0.1%, time point: constant time point	0.0593	0.996	-0.151	0.191	-0.0839
growth medium: valerate 0.1%, time point: terminal time point	0.047	0.993	-0.127	0.276	-0.384

growth medium: hypoxic dormancy (butyrate + nitrate), then recovery
Conditions	AUC25, [1]	Einf, [5]	GRinf, [4]	log2 fractional inhibitory concentration, [2]	log2 fractional inhibitory concentration, [3]
time point: constant time point	0.0746	0.992	-0.388	1.24	1.04
time point: terminal time point	0.0292	0.964	0.0989	-0.811	-0.972

NC(=O)c1cnccn1 [pyrazinamide] + CC(C)=CCC/C(C)=C/CNCCNC1C2CC3CC(C2)CC1C3 [SQ109]
Conditions	AUC25, [1]	Einf, [5]	GRinf, [4]	log2 fractional inhibitory concentration, [2]	log2 fractional inhibitory concentration, [3]
growth medium: butyrate 5 mM, time point: constant time point	0.0786	0.915	-0.00249	0.356	–
growth medium: butyrate 5 mM, time point: terminal time point	0.0634	0.946	0.022	0.129	–
growth medium: cholesterol 0.05 mM, time point: constant time point	0.116	0.894	-0.787	–	–
growth medium: cholesterol 0.2 mM (cholesterol-high), time point: constant time point	0.0592	0.977	-0.852	0.707	-0.16
growth medium: cholesterol 0.2 mM (cholesterol-high), time point: terminal time point	0.0665	0.997	-0.789	0.668	-0.347
growth medium: standard 7H9 OADC glycerol, time point: constant = terminal time point (4.2 d)	0.032	0.84	0.242	–	–
growth medium: valerate 0.1%, time point: constant time point	0.0384	0.933	0.0532	-0.164	–
growth medium: valerate 0.1%, time point: terminal time point	0.0424	0.944	0.0196	-0.462	–

NC(=O)c1cnccn1 [pyrazinamide] + CC(=O)NC[C@H]1CN(c2ccc(N3CCSCC3)c(F)c2)C(=O)O1 [sutezolid]
Conditions	AUC25, [1]	Einf, [5]	GRinf, [4]	log2 fractional inhibitory concentration, [2]	log2 fractional inhibitory concentration, [3]
growth medium: acidic pH 5.7, glycerol, time point: constant time point	0.128	0.818	-0.0805	-0.856	–
growth medium: acidic pH 5.7, glycerol, time point: terminal time point	0.124	0.99	-0.272	-0.292	-0.518
growth medium: butyrate 5 mM, time point: constant time point	0.0878	0.913	0.0976	0.557	–
growth medium: butyrate 5 mM, time point: terminal time point	0.0684	0.949	0.124	–	–
growth medium: cholesterol 0.05 mM, time point: constant time point	0.0696	1	-1	0.194	–
growth medium: cholesterol 0.2 mM (cholesterol-high), time point: constant time point	0.0979	0.996	-0.785	0.242	0.258
growth medium: cholesterol 0.2 mM (cholesterol-high), time point: terminal time point	0.105	1	-0.929	-0.145	0.207
growth medium: valerate 0.1%, time point: constant time point	0.0804	0.884	-0.147	0.999	–
growth medium: valerate 0.1%, time point: terminal time point	0.0613	0.962	-0.0671	0.436	–

growth medium: hypoxic dormancy (butyrate + nitrate), then recovery
Conditions	AUC25, [1]	Einf, [5]	GRinf, [4]	log2 fractional inhibitory concentration, [2]
time point: constant time point	0.0726	0.984	-0.401	–
time point: terminal time point	0.0286	0.786	-0.5	0.898
